This passage reports IC50 results from patent publication US20240417410A1, “TRICYCLIC COMPOUNDS FOR THE TREATMENT OF CANCER” (Hoffmann-La Roche Inc., priority 2023, published 2024).

One assay concerns SW620 cells (KRAS G12V). The assay can be described thus: Cell viability assay (Cell Counting Kit-8, 3-day). Type of assay: cell-based, human. Particulars: Homo sapiens, SW-620; SW620, 72 hrs incubation. The procedure, abridged:
(§1)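 72-hr compound treatment, 0.5% DMSO final; NCI-H358 seeded 5,000 cells/well, AGS and SW620 2,000 cells/well. Endpoint: CCK-8, 2-hr development, OD450 minus OD650.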
A general note: Tetrazolium dyes change colour on reduction, which living cells bring about.

For the next assay, the system named is AGS cells (KRAS G12D). As to the kind of experiment: Cell viability assay (Cell Counting Kit-8, 3-day). Particulars: Homo sapiens, 72 h, 72 hrs incubation. Type of assay: cell-based, human. The procedure, abridged: as §1
In assay [1] the test system is NCI-H358 cells (KRAS G12C). As to the kind of experiment: Cell viability assay (Cell Counting Kit-8, 3-day). The format is cell-based, human. The conditions noted are these: Homo sapiens, NCI-H358, 72 h, NCI-H358, 72 hrs incubation. The method in brief: as §1
The test system of assay [2] is phosphorylation of ERK, KRAS G12V in SW620. The assay can be described thus: pERK inhibition assay. Type of assay: cell-based. Particulars: Homo sapiens, SW-620, 4 h, SW620 cells. The method in brief: (§2)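 NCI-H358 (KRAS G12C), AGS (G12D) and SW620 (G12V) cells plated overnight, then treated with compound for 4 h in 0.5% DMSO. After fixing and methanol permeabilisation, phospho-ERK was detected by in-cell ELISA (HRP/TMB, OD450). IC50 from a 4-parameter sigmoidal fit.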

The subject of assay [3] is phosphorylation of ERK, KRAS G12D in AGS cells. The assay can be described thus: pERK inhibition assay. The format is cell-based. The conditions noted are these: Homo sapiens, AGS, 4 h. The procedure, abridged: as §2
The subject of assay [4] is phosphorylation of ERK, KRAS G12C in NCI-H358 cells. The assay can be described thus: pERK inhibition assay. Type of assay: cell-based. The conditions noted are these: Homo sapiens, NCI-H358, 4 h. The procedure, abridged:
as §2

The target in the next assay is KRAS G12C-BRAF complex (Homo sapiens (Human), UniProt P01116+P62937, G12C). As to the kind of experiment: KRAS-BRAF with CYPA (500 nM) interaction assay (TR-FRET, Example 136). The format is biochemical. Particulars: KRAS G12C-BRAF disruption. (TR-FRET usually uses a lanthanide donor and a delayed reading to cut background.)
Sequence of KRAS G12C-BRAF complex (P01116-2 other isoform, or with tags, fused parts or gaps G12C): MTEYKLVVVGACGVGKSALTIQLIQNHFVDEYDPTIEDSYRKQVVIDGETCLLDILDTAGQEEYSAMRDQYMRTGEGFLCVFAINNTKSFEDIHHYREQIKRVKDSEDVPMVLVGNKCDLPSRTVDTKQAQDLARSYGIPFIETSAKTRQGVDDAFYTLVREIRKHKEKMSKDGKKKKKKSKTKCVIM
Sequence of KRAS G12C-BRAF complex (P62937 whole entry): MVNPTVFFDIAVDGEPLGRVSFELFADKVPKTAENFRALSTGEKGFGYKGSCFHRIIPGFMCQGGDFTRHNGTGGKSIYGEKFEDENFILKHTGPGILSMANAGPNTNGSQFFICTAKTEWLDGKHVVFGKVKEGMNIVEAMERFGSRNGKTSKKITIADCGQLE

The term IC50 denotes the concentration at which inhibition is half-maximal. Read a low IC50 as higher potency. For `CO[C@@H](C)c1ncc(N2CCN(C[C@@H]3CNCCO3)CC2)cc1-c1c2c3cc(cc4c3n1CCC4)-c1csc(n1)C[C@H](NC(=O)[C@H]1[C@H](C)[C@@H]1C)C(=O)N1CCC[C@H](N1)C(=O)OCC(C)(C)C2` (atropisomer, axis not shown; (M)) [Example 119, (1r,2S,3R)-N-[(7S,13S)-(20M)-20-[2-[(1S)-1-methoxyethyl]-5-[4-[[(2S)-morpholin-2-yl]methyl]piperazin-1-yl]-3-pyridyl]-17,17-dimethyl-8,14-dioxo-15-oxa-4-thia-9,21,30,31-tetrazahexacyclo[23.3.1.1^2,5.1^9,13.0^19,27.0^21,26]hentriaconta-1 (28),2,5 (31),19,25 (29),26-hexaen-7-yl]-2,3-dimethyl-cyclopropanecarboxamide], the IC50 with SW620 cells (KRAS G12V) worked out at 0.8 nM; in the assay with AGS cells (KRAS G12D) it was 4.4 nM; in assay [1], 3.5 nM; in assay [2], 1.2 nM; in assay [3], 6.9 nM; in assay [4] it was 1.7 nM. The compound further registered an IC50 on KRAS G12C-BRAF complex of 9.3 nM.

In the case of `CO[C@@H](C)c1ncc(N2CCN(CCF)CC2)cc1-c1c2c3cc(cc4c3n1CCC4)-c1csc(n1)C[C@H](NC(=O)[C@H]1[C@H](C)[C@@H]1C)C(=O)N1CCC[C@H](N1)C(=O)OCC(C)(C)C2` (atropisomer, axis not shown; (M)) [Example 110, (1r,2R,3S)-N-[(7S,13S)-(20M)-20-[5-[4-(2-fluoroethyl)piperazin-1-yl]-2-[(1S)-1-methoxyethyl]-3-pyridyl]-17,17-dimethyl-8,14-dioxo-15-oxa-4-thia-9,21,30,31-tetrazahexacyclo[23.3.1.1^2,5.1^9,13.0^19,27.0^21,26]hentriaconta-1 (28),2,5 (31), 19,25 (29),26-hexaen-7-yl]-2,3-dimethyl-cyclopropanecarboxamide], the IC50 in the assay on SW620 cells (KRAS G12V) stood at 0.4 nM; with AGS cells (KRAS G12D), 2.6 nM; in assay [1], 1.8 nM; in assay [2] it was 0.3 nM; in assay [3] it was 2.6 nM; in assay [4], 0.7 nM. Also, the IC50 against KRAS G12C-BRAF complex amounted to 4.9 nM.

`CO[C@@H](C)c1ncc(N2CCOCC2)cc1-c1c2c3cc(cc4c3n1CCC4)-c1csc(n1)C[C@H](NC(=O)[C@H]1C[C@@H]1C(F)F)C(=O)N1CCC[C@H](N1)C(=O)OCC(C)(C)C2` (atropisomer, axis not shown; (M)) [Example 6, (1S,2S)-2-(difluoromethyl)-N-[(7S,13S)-(20M)-20-[2-[(1S)-1-methoxyethyl]-5-morpholino-3-pyridyl]-17,17-dimethyl-8,14-dioxo-15-oxa-4-thia-9,21,30,31-tetrazahexacyclo[23.3.1.1^2,5.1^9,13.0^19,27.0^21,26]hentriaconta-1 (28),2,5 (31), 19,25 (29),26-hexaen-7-yl]cyclopropanecarboxamide]: the IC50 with SW620 cells (KRAS G12V) was found to be 1.6 nM; in the assay on AGS cells (KRAS G12D), 19.4 nM; in assay [1], 3 nM; in assay [2], 0.8 nM; in assay [3] it was 5.6 nM; in assay [4], 1.4 nM. The same compound yielded an IC50 at KRAS G12C-BRAF complex of 11.1 nM.

Regarding `CO[C@@H](C)c1ncc(N2CCOCC2)cc1-c1c2c3cc(cc4c3n1CC(F)(F)C4)-c1csc(n1)C[C@H](NC(=O)[C@H]1C[C@@H]1c1cccnc1)C(=O)N1CCC[C@H](N1)C(=O)OCC(C)(C)C2` (atropisomer, axis not shown; (M)) [Example 91, (1S,2S)-N-[(7S,13S)-23,23-difluoro-(20M)-20-[2-[(1S)-1-methoxyethyl]-5-morpholino-3-pyridyl]-17,17-dimethyl-8,14-dioxo-15-oxa-4-thia-9,21,30,31-tetrazahexacyclo[23.3.1.1^2,5.1^9,13.0^19,27.0^21,26]hentriaconta-1 (28),2,5 (31),19,25 (29),26-hexaen-7-yl]-2-(3-pyridyl)cyclopropanecarboxamide], the IC50 with SW620 cells (KRAS G12V) was found to be 0.6 nM; in the assay with AGS cells (KRAS G12D) it was 9.7 nM; in assay [1] it was 2.8 nM; in assay [2] it was 0.6 nM; in assay [3] it was 3.2 nM; in assay [4] it was 0.5 nM. For the same compound, the midpoint of inhibition on KRAS G12C-BRAF complex, the IC50, lay at 8.1 nM.
